In brackets after ≈: the same amount, converted by molar mass.
Tests used:
[1] = tested on: cortical neurons in hAPP-transfected rat brain slices; test: Rat brain slice AD model (hAPP-induced neurodegeneration); type: cell-based; settings: rat brain slices transfected with EYFP and hAPP, three concentrations, 72 hrs (FIG. 8)
Source text: A rodent brain slice model for AD has been developed where the expression of human APP by particle-mediated gene transfer (“biolistics”) leads to typical signs of neuronal dystrophy, and ultimately the degeneration and clearance of the cell body with a few days. Brain slice preparations offer a powerful experimental system because they preserve the three-dimensional tissue architecture and local environment of neurons and glia far better than dissociated cell culture. As such, drug lead candidates that show neuroprotective activity in brain-tissue based disease models have a much increased ability to predict efficacy in vivo and ultimately in the clinic.
Preparation of Brain Slice Explants. Cd Sprague-Dawley Rat Pups are Used at Postnatal day 10. Brains are cut into 250 μm coronal slices on a vibratome in chilled medium baths. Approximately 6 such slices can be cut from each rat brain; each are divided into “hemi-coronal” slices which are placed in individual 6-well transwell inserts. […]
Assessment of cortical neuron health. […] Representative images are captured using a digital camera on a fluorescence microscope. After 3 days, cortical neurons are scored. […] Statistical significance of the neuronal counts in compound-treated slices is evaluated by ANOVA analysis, followed by post hoc Dunnett's analysis at the p≦0.05 confidence level. […]

[2] = Chemical stability (H2O, pH 7.4); type: physicochemical
Average permeability = type: in vitro ADME; settings: not told
MGAT3 [3] = test: MGAT3 transcription ratio, AD patient / control PBMCs (qPCR); type: cell-based, human; settings: Aβ stimulation
Method: (§1) qPCR reactions of cultured monocyte cDNAs. One μL total cellular cDNA per reaction is used in triplicate reactions for each test gene, and for each culture treatment. SYBR-Green reactions were run on a Continuous Fluorescence real-time thermocycler and analyzed. Cycle threshold (Ct) values are recorded for each replicate reaction, and are then averaged and normalized against mean Ct values from one or more control genes. Fold-expression differences relative to untreated cells are determined using the 2^−ΔΔCt method as previously described. Data from the curcumin concentration range are plotted in order to determine EC50 values (concentrations producing one-half maximal stimulant activity), which are used for comparisons of potency between different compounds. Data are also evaluated for each gene with regard to sensitivity, maximally effective concentration of curcuminoid, response to Aβ, and overall magnitude of fold-expression changes.
MGAT3 and/or TLR transcription were tested by qPCR in human monocyte cells treated with curcuminoids and compared the results to those treated with vehicle (Table 7). As discussed above, activation or up-regulation of macrophage MGAT3 or TLR's results in many functional outcomes, including the enhancement of […] and removal of Aβ, increased apoptosis, secretion of inflammatory cytokines, and other anti-AD antimicrobial activities. […] Thus, the ratio of MGAT3 or TLR transcription upon Aβ stimulation of human monocytes versus vehicle treatment provides an indicator and sensitive method to test the in vitro efficacy of drug candidates. […] The relative biological activity of the curcumin analogs in AD patient and control cells was ascertained in the in vitro Aβ assay described above (see Example 2).

Average solubility = type: physicochemical
[4] = Metabolic stability in human liver microsomes; type: in vitro ADME; settings: human, read-out: Half life, t1/2 HLM
[5] = Metabolic stability in human S9 fraction; type: in vitro ADME; settings: read-out: Half life, t1/2 S9
MGAT3 [6] = test: MGAT3 gene expression by qPCR in U-937 human monocytic cells treated with curcumins plus Aβ; type: cell-based; settings: human monocytic cells (U-937), curcumin plus Aβ
Method: (§2) Cell culture conditions for monocytic cell lines. Human and mouse monocyte cell lines are grown in RPMI-1640 medium with 10% fetal bovine serum (FBS), plus glutamine and pen/strep. For treatment with compounds (curcuminoids+/−Aβ), replicate sets of 0.5-1.0 mL cultures containing 1-2×10^6 cells are set up in the wells of 48-well tissue culture plates. Both replicate sets have at least one control well receiving no added curcuminoid to provide baseline expression controls for untreated, and Aβ-only treated cells. Remaining wells receive curcuminoid in a range of 10-fold serial dilutions in DMSO, typically from […] Cultures are incubated for 20-24 hours (“overnight”) at 37° C. in atmosphere with 5% CO2. After one overnight, to one of replicate sets of cultures is added Aβ (1-42) peptide to a final concentration of 5 μg/mL.
(§3) RNA isolation and cDNA synthesis. After the first overnight incubation in the presence of curcuminoid, cells from one replicate set of wells are collected by centifugation. RNAs are extracted from pelleted cells using miniprep column kits following manufacturer's protocol for animal cells. […] of total cellular RNA from each well is quantitated using a Nanodrop spectrophotometer, and first-strand total cDNA is prepared from 0.3-1.0 μg RNA by random-hexamer priming. Following the second 20 hr. incubation in the presence of Aβ, RNA extractions and cDNA synthesis are similarly performed.
Assay development. Gene-specific mRNA levels are determined using a real-time thermocycler, and by normalizing to expression of one or more control genes. Assays for quantifying mRNA levels are based on gene sequences reported in NCBI Genbank. PCR oligonucleotide primers are selected spanning introns to minimize the opportunity for amplication from any contaminating genomic DNA in the RNA preps. Oligonucleotides are typically tested and used at a concentration of 200 nM in qPCR reactions containing SYBR dye. Control reactions include template from cDNA synthesis reactions either + or − reverse transcriptase (RT), as well as no-template controls (ntc). […] Melt curves based on incremental 0.5° C. increases are determined for new assays to test for uniformity of amplified products. […]
qPCR reactions of cultured monocyte cDNAs. […] SYBR-Green reactions were run on a Continuous Fluorescence real-time thermocycler and analyzed. Cycle threshold (Ct) values are recorded for each replicate reaction, and are then averaged and normalized against mean Ct values from one or more control genes. Fold-expression differences relative to untreated cells are determined using the 2^−ΔΔCt method as previously described. […] Data are also evaluated for each gene with regard to sensitivity, maximally effective concentration of curcuminoid, response to Aβ, and overall magnitude of fold-expression changes. […]

TLR3 = TLR3 gene expression by qPCR in U-937 human monocytic cells treated with curcumins plus Aβ; type: cell-based
Method: as §2, §3
(§4) Assay development. Gene-specific mRNA levels are determined using a real-time thermocycler, and by normalizing to expression of one or more control genes. Assays for quantifying mRNA levels are based on gene sequences reported in NCBI Genbank. PCR oligonucleotide primers are selected spanning introns to minimize the opportunity for amplication from any contaminating genomic DNA in the RNA preps. Oligonucleotides are typically tested and used at a concentration of 200 nM in qPCR reactions containing SYBR dye. Control reactions include template from cDNA synthesis reactions either + or − reverse transcriptase (RT), as well as no-template controls (ntc). All reactions are performed in triplicate. Reactions are typically run with 40 cycles of 95° C. (10 sec) and 58° C. (30 sec). Melt curves based on incremental 0.5° C. increases are determined for new assays to test for uniformity of amplified products. Reaction conditions are modified as needed depending on initial test results. ‘Working’ assays are selected based on clear RNA-dependent amplification and absence of product in ‘ntc’ reactions. The following assay primers are used: […]
as §1
(§5) Data showing in vitro up-regulation of genes associated with Aβ phagocytosis in response to curcumins. Natural curcumins and synthetic analogs were tested in U-937 human monocyte cells in vitro for their ability to modulate expression of the genes MGAT3 and TLRs −2, −3, and −4. […]

TLR4 = TLR4 gene expression by qPCR in U-937 human monocytic cells treated with curcumins plus Aβ; type: cell-based
Method: as §2, §3, §4
(§6) qPCR reactions of cultured monocyte cDNAs. One μL total cellular cDNA per reaction is used in triplicate reactions for each test gene, and for each culture treatment. SYBR-Green reactions were run on a Continuous Fluorescence real-time thermocycler and analyzed. Cycle threshold (Ct) values are recorded for each replicate reaction, and are then averaged and normalized against mean Ct values from one or more control genes. Fold-expression differences relative to untreated cells are determined using the 2^−ΔΔCt method as previously described. […] Data are also evaluated for each gene with regard to sensitivity, maximally effective concentration of curcuminoid, response to Aβ, and overall magnitude of fold-expression changes. […]

ALS PBMCs = test: Mutant SOD-1 induced polarization of ALS PBMCs to the Th17 type; type: cell-based, human
Source text: (§7) More recently, it was shown that PBMCs isolated from ALS patients, and to a lesser extent from control subjects, strongly express COX-2 and other cytokines after stimulation with aggregated wild-type or mutant SOD-1. […] It was also shown that mutant SOD-1 induced polarization of ALS PBMCs to the Th17 type, but the induction was inhibited by 10.

VDR = VDR gene expression by qPCR in U-937 human monocytic cells treated with curcumins plus Aβ; type: cell-based
Method: as §2, §3, §4, §1, §5

TLR2 = TLR2 gene expression by qPCR in U-937 human monocytic cells treated with curcumins plus Aβ; type: cell-based
Method: as §2, §3, §4, §6

COX-2 = test: Inhibition of SOD1-induced COX-2 expression in ALS PBMCs; type: cell-based, human; settings: aggregated wild-type or mutant SOD-1
Source text: as §7

[7] = human monocytic cells (U-937), curcumin plus Aβ

SMILES: COc1cc(/C=C/C(=O)/C=C(O)/C=C/c2ccc(O)c(OC)c2)ccc1O [Compound 2, 1,7-Bis(4-hydroxy-3-methoxyphenyl)-5-hydroxy-hepta-1,4,6-trien-3-one, reference compound]
- Neuroprotective effect against hAPP-induced neurodegeneration [1]: prevent widespread neurodegeneration in a dose-dependent manner
- half-life ([2]; water (aqueous solution), pH 7.4, read-out: Chemical stability t1/2 pH 7.4 (converted)): 15.9 min
- half-life ([2]; water, H2O, read-out: Chemical stability t1/2 H2O (converted)): 73.5 min
- Papp (Average permeability): 844 ± 24 ×10⁻⁶ cm/s
- Relative ratio of MGAT3 transcription in AD patient / control PBMC's (MGAT3 [3]): + ((+) indicates a ratio of 1.0-1.5)
- solubility (Average solubility): 9.5 µg/mL (≈ 25.8 µM)
- half-life [4]: 40.8 min
- half-life [5]: 10.1 min
- IC50 (Anti-oxidant activity): 31.7 µM

SMILES: CN(C)c1ccc(/C=C/C(O)=C2\CCC/C(=C\c3ccc(N(C)C)cc3)C2=O)cc1 [Compound 10]
- Chemical stability H2O (stable/unstable) ([2]; H2O): stable (stability half-lives greater than 5 hours)
- Stability compared with BDC (in words) ([2]; chemical and metabolic stability): markedly greater stability than BDC
- Chemical stability pH 7.4 (stable/unstable) ([2]; pH 7.4): stable (stability half-lives greater than 5 hours)
- Relative gene expression MGAT3, increased expression relative to control cells (MGAT3 [6]): +++ ((+++) >40-fold)
- TLR3 expression response (in words) (TLR3; U-937, plus Aβ (FIG. 3)): considerably higher expression
- Relative gene expression TLR3, increased expression relative to control cells (TLR3; [7]): +++ ((+++) >40-fold)
- Concentration giving maximal TLR4 response (TLR4; U-937, plus Aβ (FIG. 4)): approximately 10 nM
- Relative gene expression TLR4, increased expression relative to control cells (TLR4; [7]): + ((+) <20-fold)
- Induction of Th17 polarization by mutant SOD-1 (ALS PBMCs): inhibited
- VDR expression increase (VDR; human monocytes, plus Aβ (FIG. 5)): 10^3 fold
- Relative gene expression VDR, increased expression relative to control cells (VDR; [7]): +++++ ((+++++) >1000-fold)
- Concentration giving maximal TLR2 expression (TLR2; U-937, in the presence of Aβ (FIG. 2)): 1 nM
- Relative gene expression TLR2, increased expression relative to control cells (TLR2; [7]): ++ ((++) >20-fold)
- Induction of COX-2 by SOD-1 after pretreatment (COX-2): blocked
- half-life [4]: 127 min
- half-life [5]: 311 min
- IC50 (Anti-oxidant activity): 155 µM

Source: US20120040976A1, “SMALL MOLECULE IMMUNOMODULATORS FOR ALZHEIMER'S DISEASE” (HUMAN BIOMOLECULAR RESEARCH INSTITUTE, priority 2008, published 2012)
